According to publication PMC11876671, “Investigating blood–brain barrier penetration and neurotoxicity of natural products for central nervous system drug development” (Scientific Reports, 2025):
Where a name gives a salt, the structure may show the parent alone. Read-outs that look alike come from different tables or passages of the source.

Tests used:
in vitro = details: PAMPA, PAMPA-BBB Pe
[1] = test system: GFP-labeled iPSC-derived human cortical glutamatergic neurons; assay: cells; type: cell-based; details: total neurite length
[2] = test system: GFP-labeled iPSC-derived human cortical glutamatergic neurons; assay: cells; details: Neuron, 48 h
[3] = Table S1, 60 min, room temperature, 0.05 mM
[4] = Homo sapiens, Neuron, Table S1, 48 hr, head prints no unit, µM per Table 1 and Fig. 5, read-out: TNL AC50 (48 hr)
[5] = Table S2: compounds exhibiting moderate to high PAMPA-BBB permeability
[6] = read-out: Viability AC50 (48hr)
[7] = read-out: Viability AC50 (48 h)
[8] = Homo sapiens, Neuron, 48 h treatment, read-out: TNL AC50 (48 h)
[9] = Table 1, 60 min, room temperature, 0.05 mM

Compound	Papp (in vitro; [3])	AC50 [1, 4]	PAMPA-BBB Pe [5]	AC50 [2, 6]	further results
COc1ccc(/C=C/C(=O)c2ccc(O)cc2O)cc1OC [2',4'-DIHYDROXY-3,4-DIMETHOXYCHALCONE]	312 ×10⁻⁶ cm/s	5.97 µM	312 10^-6 cm/sec	–	–
COc1ccc(/C=C/C(=O)c2ccc(O)cc2O)cc1 [2',4'-DIHYDROXY-4-METHOXYCHALCONE]	357 ×10⁻⁶ cm/s	37.2 µM	357 10^-6 cm/sec	21.5 µM	–
O=c1cc(-c2ccc(O)c(O)c2)oc2ccccc12 [3',4'-DIHYDROXYFLAVONE]	93.9 ×10⁻⁶ cm/s	15.7 µM	94 10^-6 cm/sec	19.8 µM	–
O=c1c(O)c(-c2ccccc2)oc2ccccc12 [3-Hydroxyflavone]	181 ×10⁻⁶ cm/s	–	–	–	AC50 [2, 7]: 1.83 µM; AC50 [1, 8]: 2.97 µM; PAMPA-BBB Pe [9]: 181.17 10 × 10^− 6 cm/sec
COc1ccc(C(=O)/C=C/c2ccccc2)cc1 [4'-METHOXYCHALCONE]	–	23.6 µM	>1000 10^-6 cm/sec	23.6 µM	PAMPA-BBB Pe [3]: >1000 10^-6 cm/sec
CN[C@@H]1C[C@H]2O[C@@](C)([C@@H]1OC)n1c3ccccc3c3c4c(c5c6ccccc6n2c5c31)C(=O)N[C@H]4O [7-hydroxystaurosporine (UCN-01), 7-hydroxystaurosporine]	158 ×10⁻⁶ cm/s	5.74 µM	158 10^-6 cm/sec	7.92 µM	–
COc1cc([C@@H]2c3cc4c(cc3C[C@H]3COC(=O)[C@@H]32)OCO4)cc(OC)c1O [(5R,5aR,8aR)-5-(4-hydroxy-3,5-dimethoxyphenyl)-5,8,8a,9-tetrahydrofuro[3',4':6,7]naphtho[2,3-d][1,3]dioxol-6(5aH)-one]	11.2 ×10⁻⁶ cm/s	0.585 µM	–	0.656 µM	Papp (in vitro; [5]): 11 ×10⁻⁶ cm/s
COc1cc(C2c3cc4c(c(O)c3CC3COC(=O)C32)OCO4)cc(OC)c1O (stereo not drawn) [Alpha-Peltatin]	14.2 ×10⁻⁶ cm/s	0.003 µM	–	0.002 µM	–
CCC(=O)CCCCC[C@@H]1NC(=O)[C@H]2CCCCN2C(=O)[C@H]([C@@H](C)CC)NC(=O)[C@H](Cc2cn(OC)c3ccccc23)NC1=O [Apicidin]	55.8 ×10⁻⁶ cm/s	4.84 µM	56 10^-6 cm/sec	2.17 µM	AC50 [2, 7]: 2.17 µM; AC50 [1, 8]: 4.84 µM; PAMPA-BBB Pe [9]: 55.75 10 × 10^− 6 cm/sec
CC[C@H](C)[C@H]1O[C@]2(C=C[C@@H]1C)C[C@@H]1C[C@@H](C/C=C(\C)[C@@H](O[C@H]3C[C@H](OC)[C@@H](O[C@H]4C[C@H](OC)[C@@H](O)[C@H](C)O4)[C@H](C)O3)[C@@H](C)/C=C/C=C3\CO[C@@H]4[C@H](O)C(C)=C[C@@H](C(=O)O1)[C@]34O)O2 [Avermectin B1A]	35 ×10⁻⁶ cm/s	25.9 µM	–	17.2 µM	–
CSC(=S)NCc1c[nH]c2ccccc12 [BRASSININ]	267 ×10⁻⁶ cm/s	6.34 µM	267 10^-6 cm/sec	–	–
O=C1NC(=O)C(c2c[nH]c3ccccc23)=C1c1c[nH]c2ccccc12 [Bisindolylmaleimide IV]	> 654 ×10⁻⁶ cm/s	10.6 µM	–	13.9 µM	–
O=C(/C=C/c1ccc(O)c(O)c1)OCCc1ccccc1 [Caffeic acid phenethyl ester]	–	22.2 µM	–	24.8 µM	PAMPA-BBB Pe [3]: >1000 10^-6 cm/sec
CCCCCc1cc(O)c2c(c1)OC(C)(C)c1ccc(C)cc1-2 [Cannabinol]	20.6 ×10⁻⁶ cm/s	28.2 µM	–	35.2 µM	Papp (in vitro; [5]): 21 ×10⁻⁶ cm/s
OCC=Cc1ccccc1 [Cinnamyl alcohol]	97.5 ×10⁻⁶ cm/s	5.95 µM	97 10^-6 cm/sec	–	Papp (in vitro; [5]): 69 ×10⁻⁶ cm/s
C[C@H]1COC2=C1C(=O)C(=O)c1c2ccc2c1CCCC2(C)C [Cryptotanshinone]	12 ×10⁻⁶ cm/s	21.1 µM	–	19.8 µM	–
Cc1c2ccncc2c(C)c2c1[nH]c1ccccc12 [Ellipticine]	–	–	>1000 10^-6 cm/sec	19.6 µM	AC50 [2, 7]: 19.6 µM; AC50 [1, 8]: 2.64 µM; PAMPA-BBB Pe [9]: > 1000 10 × 10^− 6 cm/sec; PAMPA-BBB Pe [3]: >1000 10^-6 cm/sec
CN1[C@@H](CC(=O)c2ccccc2)CCC[C@H]1C[C@H](O)c1ccccc1 [Lobeline hydrochloride]	31.8 ×10⁻⁶ cm/s	9.96 µM	–	22.5 µM	Papp (in vitro; [5]): 32 ×10⁻⁶ cm/s
CC1=C[C@H](O)CC(C)(C)[C@H]1/C=C/C(C)=C/C=C/C(C)=C/C=C/C=C(C)/C=C/C=C(C)/C=C/C1=C(C)C[C@@H](O)CC1(C)C [Lutein]	28 ×10⁻⁶ cm/s	24.2 µM	–	21.1 µM	–

Compound	Papp (in vitro; [3])	AC50 [1, 4]	PAMPA-BBB Pe [5]	AC50 [2, 6]	further results
CCCC[C@@H](C)/C=C(C)/C=C(\C)C(=O)NC1=C[C@@](O)(/C=C/C=C/C=C/C(=O)NC2=C(O)CCC2=O)[C@@H]2O[C@@H]2C1=O [ManumycinA]	64 ×10⁻⁶ cm/s	6.43 µM	–	8.33 µM	–
C=C(C)[C@@]12OC3(c4ccccc4)O[C@@H]1[C@@H]1[C@@H]4O[C@]4(CO)[C@@H](O)[C@]4(O)C(=O)C(C)=C[C@H]4[C@@]1(O3)[C@H](C)[C@H]2OC(=O)/C=C/C=C/c1ccccc1 [Mezerein]	15.6 ×10⁻⁶ cm/s	16.3 µM	–	9.41 µM	Papp (in vitro; [5]): 16 ×10⁻⁶ cm/s
COc1cc2c(O)c3c(c(-c4ccc5c(c4)OCO5)c2cc1OC)C(=O)OC3 [NCGC00077816-01]	187 ×10⁻⁶ cm/s	11 µM	–	6.51 µM	–
CCCCCC(=O)Cc1cc(O)cc(O)c1C(=O)Oc1cc(CC(=O)CCCCC)c(C(=O)O)c(OC)c1 [NCGC00095554-03]	–	6.66 µM	>1000 10^-6 cm/sec	–	PAMPA-BBB Pe [3]: >1000 10^-6 cm/sec
C=CC(C1=CC(=O)C(OC)=CC1=O)c1ccc(OC)cc1 (stereo not shown) [NCGC00095719-04]	143 ×10⁻⁶ cm/s	1.26 µM	–	1.33 µM	Papp (in vitro; [5]): 143 ×10⁻⁶ cm/s
C=C[C@@H](C1=CC(=O)C(OC)=C(OC)C1=O)c1ccccc1 [NCGC00160161-01]	69.8 ×10⁻⁶ cm/s	1.07 µM	–	6.54 µM	Papp (in vitro; [5]): 70 ×10⁻⁶ cm/s
CC=C1CN2CC[C@]34C(=C(C=O)[C@@H]1C[C@H]23)Nc1c(O)cccc14 [NCGC00160220-01]	18.2 ×10⁻⁶ cm/s	0.157 µM	18 10^-6 cm/sec	–	–
CC(=O)c1c(O)cccc1O [NCGC00166008-01]	44.7 ×10⁻⁶ cm/s	1.98 µM	–	–	–
CC[C@@]1(O)C[C@H](O[C@H]2C[C@H](N(C)C)[C@H](O)[C@H](C)O2)c2c(cc3c(c2O)C(=O)c2c(O)ccc(O)c2C3=O)[C@H]1C(=O)OC [NCGC00178933-02]	31.9 ×10⁻⁶ cm/s	0.475 µM	–	0.81 µM	Papp (in vitro; [5]): 32 ×10⁻⁶ cm/s
CC(=O)O[C@@H]1C[C@@]2(C)[C@H](c3ccoc3)C[C@H]3O[C@]32[C@]2(C)C(=O)C(O)=C3C(C)(C)C(=O)C=C[C@]3(C)C12 (stereo partly shown) [NCGC00179158-03]	17.6 ×10⁻⁶ cm/s	2.77 µM	–	2.35 µM	Papp (in vitro; [5]): 18 ×10⁻⁶ cm/s
CC1(C)C=Cc2c(ccc(C(=O)/C=C/c3ccccc3)c2O)O1 [NCGC00187466-01]	10.2 ×10⁻⁶ cm/s	2.18 µM	–	–	–
COc1ccc(CC(=O)c2ccc(O)cc2O)cc1 [ONONETIN]	172 ×10⁻⁶ cm/s	24.5 µM	172 10^-6 cm/sec	–	–
Oc1ccc(C2=Cc3ccc(O)cc3OC2)cc1 [Phenoxodiol]	145 ×10⁻⁶ cm/s	8.86 µM	–	4.33 µM	–
O=C1C=C2C=C[C@@H]3C[C@@]2(O1)[C@H]1CCCCN31 [Securinine]	22 ×10⁻⁶ cm/s	16.2 µM	22 10^-6 cm/sec	–	–
c1cc2c(cc1[C@H]1OC[C@H]3[C@@H]1CO[C@@H]3c1ccc3c(c1)OCO3)OCO2 [Sesamin]	211 ×10⁻⁶ cm/s	14.2 µM	–	–	Papp (in vitro; [5]): 211 ×10⁻⁶ cm/s
O=c1c2ccccc2oc2ccccc12 [Xanthenone]	173 ×10⁻⁶ cm/s	18.6 µM	–	–	–
Cn1cccc1-c1cccnc1 [beta-NICOTYRINE]	102 ×10⁻⁶ cm/s	8.46 µM	–	–	–
Desoxycortone	–	–	–	–	AC50 ([1]; Table S1, 48 hr, head prints no unit, µM per Table 1 and Fig. 5, read-out: TNL AC50 (48 hr)): 33.5 µM; PAMPA-BBB Pe [3]: 65.13 10^-6 cm/sec
